Source: US20260294864A1, “PHARMACEUTICAL COMPOSITION FOR THE TREATMENT AND PREVENTION OF HPV” (NP1 SRL, priority 2022, published 2026)

Experiments:
HeLa cells = experiment: Anti-clonogenic activity on HeLa cells (plating efficiency assay / live cell imaging); format: cell-based, human; conditions: for clonal inhibition in combination with Apigenin: 50 μM combined with Apigenin 25 μM; for clonal inhibition in combination with Apigenin / end point clonal assay, clonal inhibition alone: FIG. 9-11; for clonal inhibition in combination with Galangin: 50 μM combined with Galangin 12.5 μM, FIG. 9-10; for end point clonal assay, clonal inhibition alone / Anti-clonal effect: 50 μM; for end point clonal assay, clonal inhibition alone: administered alone; for Anti-clonal effect: isolated, FIG. 1
Method: Panel C and D: diagrammatic topographical maps of treatments and growth conditions on plates A and B respectively.
Panel A. Hela cells were challenged with serial twofold dilutions of 50 μM Luteolin (in columns 1-6) and 100 μM Galangin (columns 7-10). Hela control untreated cells in columns 11-12.
(§1) A total of 6 cell lines, outlined in Table 3, were used for this study. The cell lines were obtained from Research Centres of cell biology in Italy, United Kingdom and Germany. This research raised no ethical concern being based on entirely in vitro experiments using no patients' derived information or material. In compliance with National and International ethical rules, no informed consent is needed.
(§2) HeLa cells are the oldest continuous cell lines and were originally derived from a HPV18 positive metastatic cervical carcinoma (Scherer W F et al 1953). Siha cells are an epithelioid like cell line derived from a HPV16-positive invasive cervical squamous carcinoma (Friedel F et al 1970). Ca-Ski cells are a line harboring multiple copy of transcriptionally active HPV16 genomes (Baker C C et al 1984). Both Hela and Siha were a kind gift of prof MS Campo, The Beatson Institute for Cancer Research, Glasgow, Scotland. These two cell lines because of their versatility and ease of use were used for most of experiments reported. Ca-Ski cells were obtained through the courtesy of prof. Matthias Durst, at the Deutsch Krebsforschungzentrum—Heidelberg, FRG. These cells used together with Siha provide a model for the genetic instability and variability of cervical cancers. HK-168 is an immortalized, non-tumorigenic, continuous cell line derived from human skin keratinocytes in vitro transformed with whole HPV16 genome (De Marco F et al 2007). This cell line is reputed to recapitulate le biological features of transformed dysplastic cells and was used in preliminary experiments to set the experimental dosages and conditions. The ME-180 cells are a cell line harboring a few, transcriptionally active, copies of HPV68 and provide an in vitro model for dysplastic/neoplastic lesions induced by HPV with Intermediate oncogenic Risk (Yee C C et al 1985). The HaCaT cells, derived from a solar skin lesion by Petra Boukamp et al (1988) are here used as an in vitro equivalent of Ultra-Violet induced pre-neoplastic epithelial cells to rule out possible direct toxic effects of polyphenols. Both HaCaT and ME-180, were kindly donated by Prof. Matthias Durst. Hela, Siha, Ca-Ski, ME-180 and HaCaT were all grown in high glucose DMEM supplemented with 10% fetal calf serum (FCS). The HK-168 cells, which retained the ability to terminally differentiate under high Ca^2+ and FCS concentrations, were grown in K-SFM, a chemically defined medium supplemented with human EGF and bovine pituitary extract (ThermoFisher Scientific, Life Technologies, Monza—MI). Each cell line was sub-cultured twice a week at the appropriate split ratio according to the specific proliferative index. In no case antibiotics or antimycotics were added to the culture media. For the present study, all cell lines were retrieved from an in-house cell archive facility.
The anti-clonogenic activity was evaluated both by the current standard qualitative plating efficiency assay and by quantitative live cell imaging analysis ([…] S3 Live Cell Analysis Imaging System—Sartorius Welwyn Garden City, Hertfordshire, UK).

HPV transformed cells [1] = experiment: Anti-clonal effect on HPV transformed cells (cell line not stated); format: cell-based, human; conditions: for clonal inhibition in combination / anticlonogenic / anti-clonal effect: summary statement; for anticlonogenic / anti-clonal effect / IC50 / IRR (inhibitory relative rate): isolated compound; for IC50: Homo sapiens, minimal concentration reducing 50% of CFU of treated versus control, read-out: CID50 (50% clonal inhibitory dose), isolated polyphenols; for IRR (inhibitory relative rate): reverse ratio of CID50 to the reference CID50 of Quercetin (=1)
Method: The inhibitory relative rate (IRR) (fourth column) provides an efficacy ranking of molecules.
The anti-clonogenic activity was evaluated both by the current standard qualitative plating efficiency assay and by quantitative live cell imaging analysis (INCUCYTE S3 Live Cell Analysis Imaging System—Sartorius Welwyn Garden City, Hertfordshire, UK). For qualitative plating efficiency assay cells were seeded at ‘clonal’ density (i.e., 0.5 cell/mm^2) either in medium containing the testing molecules or with plain medium and incubated without any further manipulation. After 9-14 days, according to the cell line specific proliferative index, the cultures were decanted and stained with 0.2% CV/methanol for 5 min at room temperature. All conditions were tested in triplicates in a 6-well culture plate. The anti-clonogenic activity of the treatments was evaluated using the colony forming units (CFU) of treated versus control cultures. The minimal concentration which could reduce 50% of the CFU of treated versus control culture was defined as colony-forming Inhibitory concentration (CID50). For quantitative evaluation cells were seeded in 96-well microplates at the above density and condition and allowed to grow the subsequent 8-day incubation in the INCUCYTE S3 Imaging System. Images were acquired at 12-hours intervals and colony formation and percentage of growth area covered (confluency) were then monitored through automated image analysis. The analysis parameters were as follows: segmentation adjustment=0.4; hole fill <5,000 μm^2; adjusted pixel=−2.

[2] = tested on: PC3 prostate cancer cells; conditions: PC3 cells (Lansky E P et al 2005); cited from earlier work
ME-180 cells = experiment: Anti-clonogenic activity on ME-180 cells; format: cell-based, human; conditions: compared with HeLa data of FIG. 10
Description: (§3) HeLa cells are the oldest continuous cell lines and were originally derived from a HPV18 positive metastatic cervical carcinoma (Scherer W F et al 1953). Siha cells are an epithelioid like cell line derived from a HPV16-positive invasive cervical squamous carcinoma (Friedel F et al 1970). Ca-Ski cells are a line harboring multiple copy of transcriptionally active HPV16 genomes (Baker C C et al 1984). Both Hela and Siha were a kind gift of prof MS Campo, The Beatson Institute for Cancer Research, Glasgow, Scotland. These two cell lines because of their versatility and ease of use were used for most of experiments reported. Ca-Ski cells were obtained through the courtesy of prof. Matthias Durst, at the Deutsch Krebsforschungzentrum—Heidelberg, FRG. […]
(§4) The anti-clonogenic activity was evaluated both by the current standard qualitative plating efficiency assay and by quantitative live cell imaging analysis (INCUCYTE S3 Live Cell Analysis Imaging System—Sartorius Welwyn Garden City, Hertfordshire, UK). […] The anti-clonogenic activity of the treatments was evaluated using the colony forming units (CFU) of treated versus control cultures. […] For quantitative evaluation cells were seeded in 96-well microplates at the above density and condition and allowed to grow the subsequent 8-day incubation in the INCUCYTE S3 Imaging System. […]

Ca-Ski cells = experiment: Anti-clonogenic activity on Ca-Ski cells; format: cell-based, human; conditions: compared with HeLa data of FIG. 10
Description: as §3, §4

gastric cancer cells = conditions: wound-healing and Boyden Chamber assays (Ho H H et al 2010); cited from earlier work
glioma cells = conditions: wound-healing and Boyden Chamber assays (Lu J et al 2010); cited from earlier work
Siha cells [3] = experiment: Anti-clonogenic activity on SiHa cells (plating efficiency assay / live cell imaging); format: cell-based, human; conditions: for inhibition at 25 µM: Homo sapiens, single compound, 24 hours treatment then wash-out, FIG. 12, read-out: clonal inhibition
Method: In this experiment Kaempferol and Apigenin were administered to Siha cells at decremental concentrations, either in combination or alone, as shown in the topographical map (in panel C). […] Histograms in Panel B depict the number of colonies per well as evaluated by visual inspection and count.
The Histograms in Panel B depict the number of colonies per well as evaluated by visual inspection and count. • In Panel C a topographical map of plate treatments. Each condition was assayed in duplicate.
Kaempferol, Galangin, Luteolin and their combination were administered to SiHa cells at the concentrations of 25 μM each and of 12,5/12,5/6,25 μM for their combination. Treatments were allowed to stay on cells either for 2 or 4/8/16/24 hours. After that, treatments were washed out, cells washed two times with PBS, replenished with fresh medium and the anti-clonal effect was then monitored by live cell image analysis.
as §1, §2

Siha cells [4] = experiment: Antiproliferative effect on Siha cells, live cell analysis; format: cell-based, human; conditions: Siha 1000 cells/well; for antiproliferative effect: 50 μM, FIG. 2
Method: FIG. 2: live cell analysis of RNPs antiproliferative effect. Siha cells were seeded at 1000 cells/well in a 96 well plate and allowed to adhere overnight. The plate was then washed twice with PBS and replenished with 100 microliter/well fresh medium plus 50 μM of each compound. Images were taken every 12 hours; Growth curves were drawn plotting the percentage of confluence versus time. […] In fact, their growth curves outline a single spindle completely overlapping and masking the one of control untreated cells. Conversely, a distinct anti-proliferative effect is evident in panel B- where the growth curves of RNP 9 Kaempferol (solid squares), RNP 12 Luteolin (solid diamonds), RNP 16 Apigenin (solid circles) and control untreated cells (solid stars) are depicted. […] Each point represents the mean of six independent replicas. Bar width represents the Standard Deviation (SD). Consistent results were also obtained by HeLa and ME-180 cells
(§5) For antiproliferative effect cells were seeded in 96-well microplates at 1000 cells/per well (i.e.: 30 cell/mm^2), a density allowing exponential growth rate for the subsequent 8-day incubation. After overnight adhesion cell monolayers were washed and replenished with fresh media with different testing molecules, plain medium served as cell growth control.
(§6) Cell growth was then monitored by automated INCUCTE S3 imaging Systems. Images were acquired at 12-hours intervals. The analysis parameters were as follows: segmentation adjustment=0.9; hole fill <7,000 μm^2; adjusted pixel=0.
Data for growth curves, anti-clonal and Antiproliferative assays were obtained from at least three independent experiments. Each data point of quantitative anti-proliferative or anti-clonal experiments represents the mean (±SD) of eight independent replicates. Data were analyzed and plotted using Prism 6.0 software (GraphPad Software, San Diego, CA).

HPV transformed cells [5] = experiment: Antiproliferative effect on HPV transformed cells (cell line not stated); format: cell-based, human; conditions: summary statement, isolated compound
Method: as §5, §6

SMILES	clonal inhibition in combination with Apigenin (HeLa cells; HeLa)	clonal inhibition in combination with Galangin (HeLa cells; HeLa)	end point clonal assay, clonal inhibition alone (HeLa cells; HeLa)	Anti-clonal effect (HeLa cells; HeLa)	anticlonogenic / anti-clonal effect (HPV transformed cells [1])	inhibition at 25 µM (Siha cells [3]; SiHa)	antiproliferative effect (Siha cells [4])	IC50 (HPV transformed cells [1])	IRR (inhibitory relative rate) (HPV transformed cells [1])	antiproliferative effect (HPV transformed cells [5])	also measured
O=C(O)/C=C/c1ccc(O)c(O)c1 [Caffeic acid]	almost complete clonal inhibition	almost complete clonal inhibition	neither of them induced any effect	devoid of any significant anticlonogenic effect	devoid of any direct activity	–	–	–	–	–	synergistic effect with Galangine and Apigenin (HeLa cells; in association, HeLa, FIG. 9): synergistic effect; clonal inhibition in combination (HPV transformed cells [1]; combined with Galangin or Quercetin): a certain grade of clonal inhibition; anticlonogenic / anti-clonal effect (HPV transformed cells [1]; listed as Caffeic): devoid of. any direct anticlonogenic activity; reduction of invasiveness [2]: 50%
COc1cc(/C=C/C(=O)O)ccc1O [Ferulic acid]	almost complete clonal inhibition	almost complete clonal inhibition	Neither of them induced any effect	devoid of any significant anticlonogenic effect	devoid of. any direct anticlonogenic activity	–	–	–	–	–	clonal inhibition in combination with Chrysin (HeLa cells; 50 μM combined with Chrysin 25 μM, HeLa, FIG. 10-11): almost complete clonal inhibition; synergy with Galangine, Apigenin and Chrysin (HeLa cells; in association, HeLa, FIG. 10-11): synergize; clonal inhibition with Galangin, Chrysin or Apigenin (ME-180 cells): Superimposable results; clonal inhibition with Galangin, Chrysin or Apigenin (Ca-Ski cells): Superimposable results; clonal inhibition in combination (HPV transformed cells [1]; combined with Galangin, Chrysin or Apigenin): a certain grade of clonal inhibition
O=C(O)c1cc(O)c(O)c(O)c1 [Gallic acid]	–	–	–	–	–	–	–	–	–	–	migration of gastric cancer cells (gastric cancer cells): reduce the migration; migration of glioma cells (glioma cells): reduce the migration
O=c1c(O)c(-c2ccc(O)cc2)oc2cc(O)cc(O)c12 [Kaempferol]	–	–	–	almost complete suppression of clonal activity	sharp anticlonogenic and antiproliferative effect	~50%	distinct, although milder effect	25 µM	2	sharp anticlonogenic and antiproliferative effect	clonal efficiency versus control untreated cells (Siha cells [3]; 12.5 μM, alone, Siha, FIG. 4): no difference to control untreated cells; inhibition at 50 µM (Siha cells [4]; Homo sapiens, FIG. 2, read-out: suppression of proliferation): ~40%
O=c1cc(-c2ccc(O)c(O)c2)oc2cc(O)cc(O)c12 [Luteolin]	–	–	–	almost complete suppression of clonal activity	sharp anticlonogenic and antiproliferative effect	~50%	almost complete suppression of proliferation	6.25 µM	8	sharp anticlonogenic and antiproliferative effect	IC50 (HeLa cells; Homo sapiens, HeLa, serial twofold dilutions (Luteolin from 50 μM, Galangin from 100 μM), live cell image analysis, FIG. 3, read-out: CID50 (50% clonal inhibitory dose)): 6.25 µM; inhibition at up to 50 µM (HeLa cells; Homo sapiens, wells D:1-6, serial twofold dilutions of 50 μM, HeLa, FIG. 3, read-out: anti-clonal titration, inhibition in wells D:1-6): ~50%; anti-clonal effect at concentrations above CID50 (HeLa cells; higher concentrations than CID50, HeLa, FIG. 3): completely suppressive; anti-clonal titration, inhibition in wells C:1-6 (HeLa cells; wells C:1-6, serial twofold dilutions of 50 μM, HeLa, FIG. 3): almost complete inhibition; end-point anti-clonal effect versus control untreated cells (Siha cells [3]; 6.25 μM, alone, SiHa, FIG. 6-8): no difference to control untreated cells; antiproliferative effect (Siha cells [4]; listed as luteolin): sharp antiproliferative effect
